In ChEMBL document CHEMBL1153693, “Inhibitors of leukotriene B4. Synthesis and sar of new -enaminoester open-chain analogues of zeneca ZD2138” (Bioorg Med Chem Lett, 1996):
In brackets after ≈: the same amount, converted by molar mass.

Key:
[1] = Aqueous solubility was determined; type: physicochemical
[2] = test system: Rattus norvegicus; experiment: Compound was evaluated ex vivo for inhibition of LTB4 production in rat air pouch inflammatory exudate at 3 hr after peroral administration.; type: functional; conditions: po
[3] = species on record: Homo sapiens; experiment: In vitro inhibition of LTB4 production in human blood.; type: functional

SMILES: COC1(c2cc(F)cc(OCc3ccc4c(ccc(=O)n4C)c3)c2)CCOCC1 [ZD-2138]
- solubility [1]: 3.8 µM (≈ 1.51 µg/mL)
- ED50 [2]: 0.3 mg/kg

SMILES: COC1(C(=O)CC(=O)OCc2ccc3c(ccc(=O)n3C)c2)CCOCC1
- ED50 [2]: > 5 mg/kg
- IC50 [3]: > 10000 nM

SMILES: COC1(C(=N)/C=C(\O)OCc2ccc3ccccc3c2)CCOCC1
- solubility [1]: 50 µM (≈ 17.1 µg/mL)
- ED50 [2]: > 5 mg/kg
- IC50 [3]: 70 nM

SMILES: COC1(/C=C/COCc2ccc3c(ccc(=O)n3C)c2)CCOCC1
- ED50 [2]: > 5 mg/kg
- IC50 [3]: 500 nM

SMILES: COC1(/C=C/C(=O)OCc2ccc3c(ccc(=O)n3C)c2)CCOCC1
- ED50 [2]: > 5 mg/kg
- IC50 [3]: 1700 nM

SMILES: COC1(C(=N)/C=C(\O)OCc2ccc3c(ccc(=O)n3C)c2)CCOCC1
- solubility [1]: 150 µM (≈ 55.9 µg/mL)
- ED50 [2]: 3 mg/kg
- IC50 [3]: 40 nM

SMILES: COC1(/C(C)=C/C(=O)OCc2ccc3c(ccc(=O)n3C)c2)CCOCC1
- ED50 [2]: > 5 mg/kg
- IC50 [3]: 2100 nM

SMILES: CO/C(=C\C(=O)OCc1ccc2c(ccc(=O)n2C)c1)C1(OC)CCOCC1
- ED50 [2]: > 5 mg/kg
- IC50 [3]: 2600 nM

SMILES: COC1(C(=N)/C=C(\O)OCc2ccc3c(c2)OCC(=O)N3C)CCOCC1
- solubility [1]: 25 µM (≈ 9.41 µg/mL)
- ED50 [2]: 5 mg/kg
- IC50 [3]: 60 nM
